Experimental data: PubChem BioAssay (NCI)
Several values for one entry are separate records, joined by “and”; a condition that tells them apart may be missing. Equal entries are not always repeated.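 Following 48 hours of exposure in 96-well plates, responses at five concentrations were used to interpolate endpoints linearly. TGI is the concentration that stops growth completely.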

Columns and labels:
Experiment in all cases: growth of human tumour cells (NCI), 48 h
XF 498 CNS = system: XF 498 CNS
TK-10 renal = system: TK-10 renal
UO-31 renal = system: UO-31 renal
HL-60(TB) leukemia = system: HL-60(TB) leukemia
U251 CNS = system: U251 CNS
RPMI-8226 leukemia = system: RPMI-8226 leukemia
UACC-62 melanoma = system: UACC-62 melanoma
KM12 colon = system: KM12 colon
NCI-H522 lung = system: NCI-H522 lung
DMS 273 small cell lung = system: DMS 273 small cell lung
HT29 colon = system: HT29 colon
A498 renal = system: A498 renal
HOP-18 NSCLC = system: HOP-18 NSCLC
K-562 leukemia = system: K-562 leukemia
M19-MEL melanoma = system: M19-MEL melanoma
MOLT-4 leukemia = system: MOLT-4 leukemia
KM20L2 colon = system: KM20L2 colon
MALME-3M melanoma = system: MALME-3M melanoma
SF-295 CNS = system: SF-295 CNS
SF-268 CNS = system: SF-268 CNS
COLO 205 colon = system: COLO 205 colon
HOP-92 NSCLC = system: HOP-92 NSCLC
DLD-1 colon = system: DLD-1 colon
SNB-78 CNS = system: SNB-78 CNS
HCT-116 colon = system: HCT-116 colon
SF-539 CNS = system: SF-539 CNS
SR leukemia = system: SR leukemia
SK-MEL-5 melanoma = system: SK-MEL-5 melanoma
HOP-62 NSCLC = system: HOP-62 NSCLC
SK-OV-3 ovarian = system: SK-OV-3 ovarian
SK-MEL-28 melanoma = system: SK-MEL-28 melanoma
SNB-75 CNS = system: SNB-75 CNS
NCI-H460 lung = system: NCI-H460 lung
M14 melanoma = system: M14 melanoma
OVCAR-3 ovarian = system: OVCAR-3 ovarian
EKVX NSCLC = system: EKVX NSCLC
NCI-H23 lung = system: NCI-H23 lung
LOX IMVI melanoma = system: LOX IMVI melanoma
SW-620 colon = system: SW-620 colon
HCT-15 colon = system: HCT-15 colon
LXFL 529 NSCLC = system: LXFL 529 NSCLC
RXF-631 renal = system: RXF-631 renal
OVCAR-5 ovarian = system: OVCAR-5 ovarian
UACC-257 melanoma = system: UACC-257 melanoma
NCI-H226 lung = system: NCI-H226 lung
SN12C renal = system: SN12C renal
OVCAR-8 ovarian = system: OVCAR-8 ovarian
IGROV1 ovarian = system: IGROV1 ovarian
DMS 114 small cell lung = system: DMS 114 small cell lung
ACHN renal = system: ACHN renal
786-0 renal = system: 786-0 renal
RXF 393 renal = system: RXF 393 renal
A549 NSCLC = system: A549 NSCLC
HCC-2998 colon = system: HCC-2998 colon
OVCAR-4 ovarian = system: OVCAR-4 ovarian
SNB-19 CNS = system: SNB-19 CNS
CAKI-1 renal = system: CAKI-1 renal

In the case of `O=S(=O)(O)SC/C=C\CSS(=O)(=O)O`, the TGI (XF 498 CNS) is reported as greater than 100 µM, the TGI (TK-10 renal) is reported as greater than 100 µM and the TGI (UO-31 renal) is reported as greater than 100 µM. For the same compound, the TGI (HL-60(TB) leukemia) was greater than 100 µM, the TGI (U251 CNS) was greater than 100 µM and the TGI (RPMI-8226 leukemia) was greater than 100 µM. The TGI (UACC-62 melanoma) was greater than 100 µM, the TGI (KM12 colon) was > 100 µM and 61.2 µM and the TGI (NCI-H522 lung) was greater than 100 µM. For the same compound, the TGI (DMS 273 small cell lung) was greater than 100 µM, the TGI (HT29 colon) was greater than 100 µM and the TGI (A498 renal) was greater than 100 µM. It also gave a TGI (HOP-18 NSCLC) greater than 100 µM, a TGI (K-562 leukemia) greater than 100 µM and a TGI (M19-MEL melanoma) greater than 100 µM. For the same compound, the TGI (MOLT-4 leukemia) was greater than 100 µM, the TGI (KM20L2 colon) was greater than 100 µM and the TGI (MALME-3M melanoma) was greater than 100 µM. It also gave a TGI (SF-295 CNS) greater than 100 µM, a TGI (SF-268 CNS) greater than 100 µM and a TGI (COLO 205 colon) greater than 100 µM. It also gave a TGI (HOP-92 NSCLC) greater than 100 µM, a TGI (DLD-1 colon) greater than 100 µM and a TGI (SNB-78 CNS) greater than 100 µM. For the same compound, the TGI (HCT-116 colon) was greater than 100 µM, the TGI (SF-539 CNS) was greater than 100 µM and the TGI (SR leukemia) was greater than 100 µM. For the same compound, the TGI (SK-MEL-5 melanoma) was greater than 100 µM, the TGI (HOP-62 NSCLC) was greater than 100 µM and the TGI (SK-OV-3 ovarian) was greater than 100 µM. For the same compound, the TGI (SK-MEL-28 melanoma) was greater than 100 µM, the TGI (SNB-75 CNS) was greater than 100 µM and the TGI (NCI-H460 lung) was greater than 100 µM. For the same compound, the TGI (M14 melanoma) was greater than 100 µM, the TGI (OVCAR-3 ovarian) was greater than 100 µM and the TGI (EKVX NSCLC) was greater than 100 µM. For the same compound, the TGI (NCI-H23 lung) was greater than 100 µM, the TGI (LOX IMVI melanoma) was greater than 100 µM and the TGI (SW-620 colon) was greater than 100 µM. The TGI (HCT-15 colon) was greater than 100 µM, the TGI (LXFL 529 NSCLC) was greater than 100 µM and the TGI (RXF-631 renal) was greater than 100 µM. It also gave a TGI (OVCAR-5 ovarian) greater than 100 µM, a TGI (UACC-257 melanoma) greater than 100 µM and a TGI (NCI-H226 lung) greater than 100 µM. The TGI (SN12C renal) was greater than 100 µM, the TGI (OVCAR-8 ovarian) was greater than 100 µM and the TGI (IGROV1 ovarian) was greater than 100 µM. The TGI (DMS 114 small cell lung) was greater than 100 µM, the TGI (ACHN renal) was greater than 100 µM and the TGI (786-0 renal) was greater than 100 µM. The TGI (RXF 393 renal) was greater than 100 µM, the TGI (A549 NSCLC) was greater than 100 µM and the TGI (HCC-2998 colon) was greater than 100 µM. The TGI (OVCAR-4 ovarian) was greater than 100 µM, the TGI (SNB-19 CNS) was greater than 100 µM and the TGI (CAKI-1 renal) was greater than 100 µM.
